Experimental findings from patent US10981905B2, “Heteroaryl-substituted sulfonamide compounds and their use as therapeutic agents” (Xenon Pharmaceuticals Inc., priority 2018, dated 2021) are described below.

The structures appear in SMILES notation. Counter-ions that a name gives are not always drawn. Like-named read-outs stand apart in the source and are kept apart here. Some results are limits rather than exact numbers.

One may read the IC50 as the midpoint of a concentration-inhibition curve.

For series [1], the target named is T1, Nav1.6 (Homo sapiens (Human), UniProt Q9UQD0). The series can be described thus: Sodium Influx Assay (Flux), Nav1.6. The following applies: Trex HEK293 cells, ANG2 dye, inactivated state. Type of series: cell-based.
T1 sequence (Q9UQD0 whole entry): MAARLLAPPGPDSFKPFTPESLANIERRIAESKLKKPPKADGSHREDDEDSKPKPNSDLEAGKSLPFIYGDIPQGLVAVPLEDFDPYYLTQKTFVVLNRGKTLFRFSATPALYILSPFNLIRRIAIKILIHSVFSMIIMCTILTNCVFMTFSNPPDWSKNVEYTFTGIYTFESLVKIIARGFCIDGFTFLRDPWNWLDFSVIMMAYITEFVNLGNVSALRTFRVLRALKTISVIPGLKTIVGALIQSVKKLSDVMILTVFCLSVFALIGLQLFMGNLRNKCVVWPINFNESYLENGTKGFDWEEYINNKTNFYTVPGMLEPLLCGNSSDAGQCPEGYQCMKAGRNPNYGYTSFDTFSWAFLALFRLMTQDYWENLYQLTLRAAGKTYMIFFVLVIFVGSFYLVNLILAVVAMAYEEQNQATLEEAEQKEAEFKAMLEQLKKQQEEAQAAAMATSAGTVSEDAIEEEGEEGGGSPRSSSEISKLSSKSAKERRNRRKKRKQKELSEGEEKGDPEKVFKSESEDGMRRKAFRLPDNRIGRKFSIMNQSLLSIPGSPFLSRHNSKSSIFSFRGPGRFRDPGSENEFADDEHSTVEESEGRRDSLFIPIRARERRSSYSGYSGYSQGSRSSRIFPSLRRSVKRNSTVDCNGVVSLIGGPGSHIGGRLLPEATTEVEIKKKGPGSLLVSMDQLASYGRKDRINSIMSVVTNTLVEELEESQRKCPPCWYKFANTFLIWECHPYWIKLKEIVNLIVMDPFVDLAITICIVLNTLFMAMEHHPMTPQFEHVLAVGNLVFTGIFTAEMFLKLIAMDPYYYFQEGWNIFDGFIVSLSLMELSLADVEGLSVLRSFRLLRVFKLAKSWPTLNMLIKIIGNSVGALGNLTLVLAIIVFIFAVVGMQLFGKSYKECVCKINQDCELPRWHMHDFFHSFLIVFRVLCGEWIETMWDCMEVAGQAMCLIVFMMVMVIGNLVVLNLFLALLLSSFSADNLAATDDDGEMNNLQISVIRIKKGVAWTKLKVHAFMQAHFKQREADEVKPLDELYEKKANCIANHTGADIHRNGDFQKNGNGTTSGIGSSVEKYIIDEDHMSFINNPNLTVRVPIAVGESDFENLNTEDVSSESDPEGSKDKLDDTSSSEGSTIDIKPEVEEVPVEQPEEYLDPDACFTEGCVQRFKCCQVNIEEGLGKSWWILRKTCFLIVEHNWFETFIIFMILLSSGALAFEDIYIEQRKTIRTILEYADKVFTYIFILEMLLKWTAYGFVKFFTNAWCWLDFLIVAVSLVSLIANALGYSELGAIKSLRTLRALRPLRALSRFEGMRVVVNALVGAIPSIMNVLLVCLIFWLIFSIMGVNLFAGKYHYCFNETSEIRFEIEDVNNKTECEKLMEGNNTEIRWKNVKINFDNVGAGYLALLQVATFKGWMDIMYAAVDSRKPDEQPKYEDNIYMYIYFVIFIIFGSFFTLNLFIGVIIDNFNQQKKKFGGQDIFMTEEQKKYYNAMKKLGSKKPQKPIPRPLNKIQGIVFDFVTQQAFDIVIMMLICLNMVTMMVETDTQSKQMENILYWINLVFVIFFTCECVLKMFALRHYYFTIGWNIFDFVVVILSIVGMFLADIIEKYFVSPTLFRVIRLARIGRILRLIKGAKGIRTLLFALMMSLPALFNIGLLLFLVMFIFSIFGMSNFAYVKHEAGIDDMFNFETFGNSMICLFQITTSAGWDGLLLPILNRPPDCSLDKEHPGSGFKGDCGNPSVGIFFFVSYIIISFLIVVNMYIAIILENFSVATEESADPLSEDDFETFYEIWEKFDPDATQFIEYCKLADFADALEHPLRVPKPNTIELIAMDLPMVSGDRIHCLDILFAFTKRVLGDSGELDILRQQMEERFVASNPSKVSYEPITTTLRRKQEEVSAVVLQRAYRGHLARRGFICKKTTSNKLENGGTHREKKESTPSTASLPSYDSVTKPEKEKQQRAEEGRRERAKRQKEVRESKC
In the next series the target is Nav1.1 (Homo sapiens (Human), UniProt P35498). Nature of the series: Sodium Influx Assay (Flux), Nav1.1. As to conditions: Trex HEK293 cells, ANG2 dye, inactivated state. Format: cell-based.
Series [2] concerns the target T1, Nav1.6. Nature of the series: Electrophysiological Assay (EP, patch voltage clamp), Nav1.6. Type of series: cell-based. The following applies: HEK-293 cells stably expressing the channel. An excerpt: Patch voltage clamp electrophysiology allows for the direct measurement and quantification of block of voltage-gated sodium channels (Nav's), and allows the determination of the time- and voltage-dependence of block which has been interpreted as differential binding to the resting, open, and inactivated states of the sodium channel (Hille, B., Journal of General Physiology (1977), 69: 497-515).
Nav1.1, Nav1.5 and Nav1.6 cDNAs (NM_001165964 (SCN1A), NM_000335 (SCN5A) and NM_014191 (SCN8A), respectively) were stably expressed in HEK-293 cells.
Sodium currents were measured using the patch clamp technique in the whole-cell configuration using either a PatchXpress automated voltage clamp or manually using an Axopatch 200B (Axon Instruments) or Model 2400 (A-M systems) amplifier. The manual voltage clamp protocol was as follows: Borosilicate glass micropipettes were fire-polished to a tip diameter yielding a resistance of 2-4 Mohms in the working solutions. […] In some studies, the external sodium was reduced by equimolar replacement with choline. Osmolarity in the CsF internal and NaCl external solutions was adjusted to 300 mOsm/kg and 310 mOsm/kg with glucose, respectively. All recordings were performed at ambient temperature in a bath chamber with a volume of 150 μL. Control sodium currents were measured in 0.5% DMSO. Controls and representative compounds of the invention were applied to the recording chamber through a 4-pinch or 8-pinch valve bath perfusion system manufactured by ALA Scientific Instruments.
Currents were recorded at 40 kHz sampling frequency, filtered at […], and stored using a Digidata-1322A analogue/digital interface with the pClamp software (Axon Instruments). Series resistance compensation was applied (60-80%). […] All statistics in this study are given as mean±SD.
The membrane potential was maintained at a voltage where inactivation of the channel is complete. The voltage is then stepped back to a very negative (Vhold=−150 mV) voltage for 20 ms and then a test pulse is applied to quantify the compound block. The 20 ms brief repolarization was long enough for compound-free channels to completely recover from fast inactivation, but the compound-bound channels recovered more slowly such that negligible recovery could occur during this interval. The percent decrease in sodium current following wash-on of compound was taken as the percent block of sodium channels.

Series [3] addresses T2, Nav1.5 (Homo sapiens (Human), UniProt Q14524). Nature of the series: Sodium Influx Assay (Flux), Nav1.5.
Series [4] deals with T2, Nav1.5.
Setting [5] is: read-out: Flux NaV1.5 IC50, sodium influx assay, Trex HEK293 cells, ANG2 dye, inactivated state.

T2 sequence (Q14524 other isoform, or with tags, fused parts or gaps): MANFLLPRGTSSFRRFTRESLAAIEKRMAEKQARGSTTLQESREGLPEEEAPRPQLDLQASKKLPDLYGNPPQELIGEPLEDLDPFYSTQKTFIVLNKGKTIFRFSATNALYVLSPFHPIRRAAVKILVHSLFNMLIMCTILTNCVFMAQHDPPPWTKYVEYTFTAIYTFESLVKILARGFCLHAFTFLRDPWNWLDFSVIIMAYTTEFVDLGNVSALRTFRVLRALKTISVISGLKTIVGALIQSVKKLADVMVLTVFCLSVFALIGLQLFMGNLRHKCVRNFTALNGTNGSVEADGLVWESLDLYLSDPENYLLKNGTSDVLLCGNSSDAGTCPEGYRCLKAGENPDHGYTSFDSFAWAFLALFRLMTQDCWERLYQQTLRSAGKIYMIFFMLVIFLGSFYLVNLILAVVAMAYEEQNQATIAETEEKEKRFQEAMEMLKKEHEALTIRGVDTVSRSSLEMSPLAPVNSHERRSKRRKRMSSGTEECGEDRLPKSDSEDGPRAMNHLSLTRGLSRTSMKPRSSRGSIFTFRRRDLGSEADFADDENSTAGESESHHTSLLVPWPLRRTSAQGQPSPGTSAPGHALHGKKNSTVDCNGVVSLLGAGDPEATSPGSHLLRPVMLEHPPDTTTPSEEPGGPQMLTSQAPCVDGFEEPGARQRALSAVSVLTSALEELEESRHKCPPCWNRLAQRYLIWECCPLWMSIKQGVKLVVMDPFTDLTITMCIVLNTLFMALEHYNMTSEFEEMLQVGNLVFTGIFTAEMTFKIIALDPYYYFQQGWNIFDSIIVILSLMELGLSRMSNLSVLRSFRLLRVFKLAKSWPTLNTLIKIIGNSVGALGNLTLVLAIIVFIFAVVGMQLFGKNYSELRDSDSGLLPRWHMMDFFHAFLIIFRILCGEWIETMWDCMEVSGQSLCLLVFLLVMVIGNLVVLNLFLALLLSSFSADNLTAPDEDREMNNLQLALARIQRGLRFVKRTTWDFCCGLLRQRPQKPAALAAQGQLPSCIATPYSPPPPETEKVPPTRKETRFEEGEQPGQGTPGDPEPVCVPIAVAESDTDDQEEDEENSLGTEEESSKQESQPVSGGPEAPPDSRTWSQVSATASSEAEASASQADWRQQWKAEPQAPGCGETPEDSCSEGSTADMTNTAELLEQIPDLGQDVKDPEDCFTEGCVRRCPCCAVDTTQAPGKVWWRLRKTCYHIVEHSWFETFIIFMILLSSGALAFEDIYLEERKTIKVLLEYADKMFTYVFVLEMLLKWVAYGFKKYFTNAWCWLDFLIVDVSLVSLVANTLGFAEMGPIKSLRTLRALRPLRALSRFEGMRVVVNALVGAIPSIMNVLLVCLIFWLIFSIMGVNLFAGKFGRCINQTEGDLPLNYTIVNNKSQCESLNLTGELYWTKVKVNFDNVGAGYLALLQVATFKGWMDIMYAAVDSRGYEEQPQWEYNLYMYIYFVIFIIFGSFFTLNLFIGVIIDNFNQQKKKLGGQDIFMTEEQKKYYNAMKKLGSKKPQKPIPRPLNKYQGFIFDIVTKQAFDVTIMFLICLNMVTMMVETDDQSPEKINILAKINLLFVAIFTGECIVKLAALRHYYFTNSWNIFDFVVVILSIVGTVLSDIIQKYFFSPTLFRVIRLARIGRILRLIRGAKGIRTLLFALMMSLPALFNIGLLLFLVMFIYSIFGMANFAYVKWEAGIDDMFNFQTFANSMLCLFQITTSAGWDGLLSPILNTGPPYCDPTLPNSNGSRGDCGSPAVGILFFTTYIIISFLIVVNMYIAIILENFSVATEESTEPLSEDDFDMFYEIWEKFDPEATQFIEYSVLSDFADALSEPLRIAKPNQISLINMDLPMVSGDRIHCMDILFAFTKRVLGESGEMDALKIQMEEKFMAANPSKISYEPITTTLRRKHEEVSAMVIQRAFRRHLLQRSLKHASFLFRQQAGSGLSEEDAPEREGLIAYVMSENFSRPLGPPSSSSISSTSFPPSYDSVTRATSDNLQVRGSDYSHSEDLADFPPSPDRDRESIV

`Cc1nc(S(=O)(=O)Nc2cscn2)ccc1NCc1c(F)ccc(F)c1CN(C)C(C)(C)C` [Example 21, 5-((2-((tert-butyl(methyl)amino)methyl)-3,6-difluorobenzyl)amino)-6-methyl-N-(thiazol-4-yl)pyridine-2-sulfonamide trifluoroacetic acid salt]: the IC50 against Nav1.6 [1] is 0.102 µM; at Nav1.1 it was 30 µM; against Nav1.6 [2] it was 0.043 µM; on Nav1.5 [3] (setting [5]), 30 µM.

`Cc1nc(S(=O)(=O)Nc2cscn2)c(F)cc1NCc1c(F)cccc1CN(C)C(C)(C)C` [Example 48, 5-((2-((tert-butyl(methyl)amino)-methyl)-6-fluorobenzyl)amino)-3-fluoro-6-methyl-N-(thiazol-4-yl)pyridine-2-sulfonamide]: the IC50 at Nav1.6 [1] was found to be 0.084 µM; against Nav1.1 it was 30 µM; on Nav1.6 [2], 0.017 µM; at Nav1.5 [3] (setting [5]) it was 30 µM.

Take `Cc1nc(S(=O)(=O)Nc2ccsn2)ccc1NCc1c(F)cccc1CN1CCC1` [Example 20, 5-((2-(azetidin-1-ylmethyl)-6-fluorobenzyl)amino)-N-(isothiazol-3-yl)-6-methylpyridine-2-sulfonamide trifluoroacetic acid salt]: the IC50 at Nav1.6 [1] amounted to 0.067 µM; against Nav1.1, 30 µM; on Nav1.6 [2], 0.023 µM; on Nav1.5 [3] (setting [5]), 25 µM.

Turning to `Cc1nc(S(=O)(=O)Nc2cscn2)ccc1NCc1c(F)cccc1CN1C2CCC1CC2` [Example 25, 5-((2-((7-azabicyclo[2.2.1]heptan-7-yl)methyl)-6-fluorobenzyl)amino)-6-methyl-N-(thiazol-4-yl)pyridine-2-sulfonamide trifluoroacetic acid salt], the figures for the IC50 at Nav1.6 [1], against Nav1.1 and against Nav1.5 [4] were 0.154 µM, 30 µM and 30 µM, respectively.

As for `Cc1nc(S(=O)(=O)Nc2cscn2)ccc1NCc1c(F)cccc1CN(C)C(C)C` [Example 29, 5-((2-fluoro-6-((isopropyl(methyl)amino)methyl)benzyl)amino)-6-methyl-N-(thiazol-4-yl)pyridine-2-sulfonamide trifluoroacetic acid salt], the IC50 is 0.082 µM against Nav1.6 [1], ≥ 30 µM at Nav1.1, 0.039 µM against Nav1.6 [2] and ≥ 30 µM against Nav1.5 [3].

Take `Cc1nc(S(=O)(=O)Nc2cscn2)ccc1NCc1c(F)cccc1CN1CCC1` [Example 4, 5-((2-(azetidin-1-ylmethyl)-6-fluorobenzyl)amino)-6-methyl-N-(thiazol-4-yl)pyridine-2-sulfonamide]: the IC50 is 0.111 µM against Nav1.6 [1], 28.8 µM on Nav1.1, 0.026 µM at Nav1.6 [2] and 28.2 µM on Nav1.5 [3] (setting [5]).

Regarding `Cc1nc(S(=O)(=O)Nc2ccsn2)ccc1NCc1c(F)cccc1CN(C)C(C)(C)C` [Example 19, 5-((2-((tert-butyl(methyl)amino)methyl)-6-fluorobenzyl)amino)-N-(isothiazol-3-yl)-6-methylpyridine-2-sulfonamide trifluoroacetic acid salt], the half-inhibitory concentration (IC50) on Nav1.6 [1] came to 0.221 µM; on Nav1.1, 30 µM; at Nav1.6 [2], 0.038 µM; on Nav1.5 [3] (setting [5]) it was 30 µM.

Turning to `Cc1nc(S(=O)(=O)Nc2cscn2)c(F)cc1NCc1c(F)cccc1CN1C2CCC1CC2` [Example 33, 5-((2-((azabicyclo[2.2.1]heptan-7-yl)methyl)-6-fluorobenzyl)amino)-3-fluoro-6-methyl-N-(thiazol-4-yl)pyridine-2-sulfonamide trifluoroacetic acid salt], the IC50 against Nav1.5 [4] stood at 30 µM.

`Cc1nc(S(=O)(=O)Nc2cscn2)ccc1NCc1c(F)cccc1CN(C)C(C)(C)C` [Example 6, 5-((2-((tert-butyl(methyl)amino)methyl)-6-fluorobenzyl)amino)-6-methyl-N-(thiazol-4-yl)pyridine-2-sulfonamide formic acid salt]: the IC50 came out at 0.398 µM against Nav1.6 [1], 30 µM at Nav1.1, 0.069 µM at Nav1.6 [2] and 30 µM at Nav1.5 [3] (setting [5]).

For the compound `O=S(=O)(Nc1cscn1)c1ccc(NCc2c(F)cccc2CN2C3CCC2CC3)c(C(F)(F)F)n1` [Example 47, 5-((2-((7-azabicyclo[2.2.1]heptan-7-yl)methyl)-6-fluorobenzyl)amino)-N-(thiazol-4-yl)-6-(trifluoromethyl)pyridine-2-sulfonamide trifluoroacetic acid salt], the IC50 worked out at 0.021 µM on Nav1.6 [1], 13.6 µM on Nav1.1 and 30 µM on Nav1.5 [4].

Regarding `Cc1nc(S(=O)(=O)Nc2cscn2)ccc1N[C@@H](C)c1ccccc1F` [Example 3, (S)-5-((1-(2-fluorophenyl)ethyl)amino)-6-methyl-N-(thiazol-4-yl)pyridine-2-sulfonamide], the IC50 against Nav1.6 [1] came to 4.74 µM; against Nav1.1, 30 µM; at Nav1.5 [3] (setting [5]), 30 µM.
